Laboratory results published in US20200009143A1, “REPURPOSING OF CANCER DRUGS FOR TREATMENT OF MYCOBACTERIUM” (STC.UNM, priority 2016, published 2020).

Assays:
RAW 264.7 macrophages = settings: PARP inhibition; cited from earlier work
PARP = PARP (Mus musculus, UniProt P11103); assay: whole cell PARP inhibition in UV-activated RAW 264.7 macrophages, PARP activity by ELISA; assay type: cell-based
[1] = human, in vivo; cited from earlier work
tuberculosis = settings: systemically delivered, despite significant plasma levels; cited from earlier work
[2] = in vivo; cited from earlier work

PARP, sequence (P11103 2-1013): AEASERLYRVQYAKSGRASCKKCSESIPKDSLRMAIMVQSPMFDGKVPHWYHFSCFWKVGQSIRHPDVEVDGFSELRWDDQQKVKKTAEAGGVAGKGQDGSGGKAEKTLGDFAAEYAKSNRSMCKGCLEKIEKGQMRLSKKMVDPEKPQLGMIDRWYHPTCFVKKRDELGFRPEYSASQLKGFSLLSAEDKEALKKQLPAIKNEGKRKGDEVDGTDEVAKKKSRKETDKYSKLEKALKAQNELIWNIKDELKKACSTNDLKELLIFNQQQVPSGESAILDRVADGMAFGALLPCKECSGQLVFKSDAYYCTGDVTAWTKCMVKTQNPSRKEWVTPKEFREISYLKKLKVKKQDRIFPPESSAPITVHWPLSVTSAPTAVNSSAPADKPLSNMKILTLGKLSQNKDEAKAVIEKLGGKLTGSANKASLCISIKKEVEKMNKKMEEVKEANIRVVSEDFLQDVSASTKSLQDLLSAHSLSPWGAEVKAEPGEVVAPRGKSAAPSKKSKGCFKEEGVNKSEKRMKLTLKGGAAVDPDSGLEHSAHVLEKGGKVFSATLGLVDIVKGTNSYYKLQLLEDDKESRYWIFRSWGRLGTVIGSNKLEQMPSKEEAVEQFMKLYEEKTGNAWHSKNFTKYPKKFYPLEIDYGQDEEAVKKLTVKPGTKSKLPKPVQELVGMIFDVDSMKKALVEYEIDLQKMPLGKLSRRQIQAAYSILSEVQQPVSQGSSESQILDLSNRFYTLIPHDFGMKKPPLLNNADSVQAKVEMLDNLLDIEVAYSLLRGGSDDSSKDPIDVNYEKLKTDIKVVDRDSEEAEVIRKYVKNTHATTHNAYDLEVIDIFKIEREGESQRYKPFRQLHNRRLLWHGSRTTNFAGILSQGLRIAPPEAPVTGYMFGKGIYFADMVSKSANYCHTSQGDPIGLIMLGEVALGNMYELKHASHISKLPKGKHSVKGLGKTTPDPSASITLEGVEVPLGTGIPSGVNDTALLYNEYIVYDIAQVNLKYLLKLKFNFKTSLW

NC(=O)c1cccc(N)c1 [3-aminobenzamide]
inhibition of mycobacteria-induced macrophage necrosis (RAW 264.7 macrophages): strongly inhibited

O=C(O)c1cnccn1 [POA, pyrazinoic acid]
PARP inhibition (in words) (PARP; at levels readily achieved during conventional PZA therapy): potent inhibitor | ratio of plasma Cmax/IC50 (PARP; known peak plasma level in TB patients over whole-cell PARP IC50): 20 | steady state peak plasma level [1]: 300 µM | efficacy in vivo (tuberculosis): ineffective | distribution in human granulomas [2]: wide distribution

NC(=O)c1cnccn1 [PZA, pyrazinamide]
steady state peak plasma level [1]: about 500 μM
